Measurements as given in article PMC8657848, “Developmental Toxicity and Biotransformation of Two Anti-Epileptics in Zebrafish Embryos and Early Larvae” (International Journal of Molecular Sciences, 2021).
Values joined by “and” are separate entries in the source; they are usually repeats but may differ in a detail not shown here. Equal entries are not always repeated. Values belong to the compound of their own block, whether it stands above or below them.

Tests used:
[1] = test system: zebrafish embryos; details: cited from earlier work; for Teratogenicity on zebrafish development: after 70 h of exposure (time point 72 hpf)
[2] = test system: zebrafish embryos/larvae; assay: Quantification of parent compounds and metabolites in whole zebrafish embryos/larvae homogenate extracts; details: for Uptake by embryos and larvae (quantified in homogenate extracts): 24 and 120 hpf, CBZ, PHE 31.25, 85, 250 µM, E-CBZ, HPPH 250 µM
Description: In three biological replicates (n = 3; 20 embryos/replicate) and at the two desired developmental stages (24 and 120 hpf), embryos/larvae of each test and control group were pooled and then rinsed three times with cold EMS (4 °C) on a mesh (Cell strainer […] Nylon, Steril Falcon®, Durham, NC, USA). Embryos collected at 24 hpf were not dechorionated, as the focus of this study was on the potential formation of the mammalian active metabolites. Moreover, it was argued that the chorion was more permeable than previously believed and that dechorionation could increase background malformations during gross morphology investigation. Embryos/larvae were then transferred and kept for five min in cryotubes (Cryo.S™, Greiner Bio-One, Frickenhausen, Germany) filled with 500 µL of cold embryo medium (4 °C), before being snap-frozen in liquid nitrogen and kept, for later use, at −80 °C (Figure 9).
The extraction preparation was based on Brox et al. for two developmental stages, 24 and 120 hpf, and performed in triplicate for each test group (n = 3, 20 embryos/replicate) (Figure 9). On the day of the extraction procedure, frozen samples (see Section 4.2.1) were thawed on ice and EMS was removed. A volume of 500 µL of acetonitrile (ACN) (purity ≥99.9%, Merck, Darmstadt, Germany) containing the internal standard lamotrigine, LAMO, (≥98% purity, CAS number: 84057-84-1, Sigma-Aldrich, Merck, Darmstadt, Germany) was then added to each tube to reach a final concentration of 0.39 µM, after dilution in HPLC-grade water. Samples were vortexed (VM3, CAT, Germany) for 5 min at a 2000 rotation/min speed, before being placed on ice and ultrasonicated with an Ultrasonic Processor VCX 130 (Sonics, Newtown, CT, USA) fifteen times for 30 s at an 80% amplitude with pause intervals of 30 s. Supernatants of the samples were then centrifuged (Centrifuge 5424 R, Eppendorf, Hamburg, Germany) twice at 4 °C for 15 min at 15,000× g, snap-frozen and kept for later use at −80 °C, whereas the pellets were discarded.
First, both sample types were processed to reach a final percentage of 30% ACN and a concentration of 0.39 µM of the IS, LAMO. […] Calibration curves and quality controls were prepared in their corresponding reaction mixtures to minimize matrix or extraction process effects. The analytical investigations were performed on an Acquity Ultra Performance Liquid Chromatography (UPLC) with sample manager, binary solvent manager, diode array detector and a triple-quadrupole detector (ACQUITY UPLC-triple quadrupole detector, Waters, Milford, CT, USA) equipped with the Masslynx software (version 4.1). […] Separation was accomplished in 6 min, using a flow rate of 0.5 mL/min. The solvent gradient program was set as follows: 85% A/15% B (0–0.5 min); 85–0% A/15–100% B (0.5–3.3 min); 0% A/100% B (3.3–4.4 min); 0–85% A/100–15% B (4.4–4.5 min); 85% A/15% B (4.5–6 min). The column was set at 40 °C and the injection volume was 10 μL. For the mass spectrometric conditions, the following parameters were used in positive ionization mode: capillarity voltage 3.5 kV, extractor voltage 3 V, cone voltage 35 V, Rf lens 0.1 V. The source temperature was set at 120 °C and the desolation temperature at 450 °C. The desolvation gas flow was fixed at 1000 L/h and cone gas flow at 50 L/h. […] The limit of quantification, linearity, matrix effects and specificity of the method developed for each compound were validated based on the European Medicines Agency (EMA) guidelines for bioanalytical method validation and the study from Kislyuk et al..
For the quantification of the metabolites E-CBZ and HPPH, the samples processed were the microsomal incubation reactions (see Section 4.3.2), the zebrafish culture and stock medium (4.2.1) and the zebrafish embryos/larvae extracts (see Section 4.2.3). Samples from the different experiments were also prepared, as for the parent compounds, to reach a final percentage of 30% ACN and a concentration of 0.39 µM of the IS, LAMO.

[3] = test system: zebrafish embryos and larvae; assay: Morphological evaluation of zebrafish embryos/larvae exposed from 5¼ to 120 hpf; details: for Significant effect on embryo/larva development after exposure to the metabolite: 5¼–120 hpf; for Teratogenicity in zebrafish (conclusion from morphological and analytical assessment): exposure 5¼–120 hpf
Description: Each experiment was performed in two biological replicates (n = 2, 20 embryos/replicate) and consisted of a medium control group (EMS), solvent control group(s) (EMS + 0.5% DMSO and/or EMS + 1% DMSO) and four dose groups. […] Embryos were reared until they reached the desired developmental stage, under the same environmental conditions as the adults (28.5 °C ± 0.3 °C with a 14/10 h light/dark cycle) in the incubator (TIN-IN35, Phoenix instrument, Garbsen, Germany).
For the metabolites, E-CBZ (≥98% purity, CAS number: 36507-30-9, Supelco, Merck, Darmstadt, Germany) and HPPH (98% purity, CAS number: 2784-27-2, Sigma-Aldrich®, Merck, Darmstadt, Germany), we only selected one high concentration, 250 µM (see Supplementary Table S1). […] A higher percentage of DMSO was used for E-CBZ for the optimum dissolution of E-CBZ in EMS. Immediately after the selection (see Section 4.1), twenty embryos were randomly distributed in each control and test group. Embryos were exposed at the latest at 5 hpf in a final volume of 300 µL medium at a density of a fish per well.
For each biological replicate (n = 2), zebrafish embryos were morphologically investigated at 5¼, 10, 24, 48, 72, 96 and 120 hpf (Figure 9) using an Olympus CKX41 microscope with an Olympus U-TV0.5XC-3 lighting and an Olympys 4x/0.16 Uplan APO microscope objective (Shinjuku, Tokyo, Japon) to follow the developmental stages described by Kimmel et al.. The 5¼- and 10-hpf time points served as control steps to identify unfertilized or coagulated eggs that were included unwittingly to the experiment and referenced as coagulated in the 24-hpf morphological sheet (see Supplementary Figure S3). A series of morphological parameters were explored, adapted from Nagel et al., depending on the different time points of interest and described previously by our group (see Supplementary Figure S3). All parameters were scored 0 if normal and 1 if malformed. This binary scale was used to facilitate the scoring and no gradation of the severity of the endpoints was evaluated in this study.

[4] = Quantification of compound in stock and culture medium relative to nominal concentration (LC-MS); type: physicochemical; details: 96 hpf
Description: The control and test mediums were also kept in the same incubator until the last time point of the experiment. The embryo media were renewed every 48 h, to avoid medium acidification and oxygen deprivation. At each medium change and at the last time point of the experiment (Figure 9), the media exposed to the embryos were pooled and kept at −80 °C for further use (n = 3). Moreover, samples from the stock solutions kept at 28.5 °C ± 0.3 °C were also taken at 0 and 120 hpf (n = 3), whereas samples were only taken at 96 hpf for the metabolites medium (E-CBZ and HPPH).

[5] = CBZ/E-CBZ experiment, 250 µM, 120 hpf, affected/evaluated, replicates 1 and 2
[6] = PHE/HPPH experiment, 250 µM, 120 hpf, affected/evaluated, replicates 1 and 2

Structure (SMILES): CC1(C)OC(=O)NC1=O [DMO, dimethadione]
Teratogenicity on zebrafish development [1]: induced teratogenicity

Morphological differences compared with the controls before 48 hpf ([3]; CBZ 31.25, 85, 250 µM, E-CBZ 250 µM): No statistically significant differences
Deviation Tail Curve [3, 5]: 1/20
Malformation Head Deviation Eye [3, 5]: 1/20
Malformation Head Deviation Mouth [3, 5]: 1/20
Oedema Head [3, 5]: 1/20
Oedema Pericardium [3, 5]: 1/20
Oedema Yolk [3, 5]: 1/20
Swim Bladder Not Inflated [3, 5]: 3/20 and 6/20 *
Quantified concentration above the nominal concentration ([4]; 250 µM, culture medium): around 20%
Percentage of quantified compound concentration relatively to the nominal concentration ([4]; CBZ–E-CBZ, Culture medium, nominal 250 µM): 117.3 ± 9.3%
Structure (SMILES): NC(=O)N1c2ccccc2C2OC2c2ccccc21 (stereo not drawn) [E-CBZ, carbamazepine-10,11-epoxide]
Uptake by embryos and larvae (quantified in homogenate extracts) [2]: Uptake of the compounds was also observed
Findings after incubation of zebrafish embryos ([1]; 2.6 mg/L (10.3 µM), 3 to 144 hpf): lack of findings
Significant effect on embryo/larva development after exposure to the metabolite ([3]; 250 µM): delay in swim bladder inflation at 120 hpf for one replicate
Teratogenicity in zebrafish (conclusion from morphological and analytical assessment) [3]: not teratogenic in zebrafish

Structure (SMILES): O=C1NC(=O)C(c2ccccc2)(c2ccc(O)cc2)N1 (stereo not drawn) [HPPH, 5-(4-hydroxyphenyl)-5-phenylhydantoin]
Uptake by embryos and larvae (quantified in homogenate extracts) [2]: Uptake of the compounds was also observed
Internal concentration, times higher at 24 hpf than at 120 hpf ([2]; all concentrations): ~5 times
Significant effect on embryo/larva development after exposure to the metabolite ([3]; 250 µM): no significant effect
Deviation Tail Curve [3, 6]: 2/20
Deviation Tail Tissue Deviation [3, 6]: 1/20
Malformation Head Deviation Eye [3, 6]: 2/20
Swim Bladder Not Inflated [3, 6]: 5/20 and 6/20
Teratogenicity in zebrafish (conclusion from morphological and analytical assessment) [3]: not teratogenic in zebrafish

Structure (SMILES): CN1C(=O)OC(C)(C)C1=O [TMO, trimethadione]
Teratogenicity on zebrafish development [1]: induced teratogenicity
